# How the values were obtained:
# [1] = Peptide degradation assay in HeLa lysates, RP-HPLC; conditions: 30 μM peptide, HeLa lysates 2 mg/mL, 10 mM Tris-HCl pH 7.6, 37°C, HPLC UV 442 nm
Molecule,time within which the peptide was mostly degraded [1] [min],entry into intact cells (permeability) (HeLa cells)
N=C(N)NCCC[C@H](NC(=O)[C@H](CCCNC(=N)N)NC(=O)[C@H](CCCNC(=N)N)NC(=O)[C@H](CCC(N)=O)NC(=O)[C@H](CCCNC(=N)N)NC(=O)[C@H](CCCNC(=N)N)NC(=O)[C@H](CCCCN)NC(=O)[C@H](CCCCN)NC(=O)[C@H](CCCNC(=N)N)NC(=O)CNC(=O)[C@H](Cc1ccc(O)cc1)NC(=O)c1ccc2c(c1)C(=O)OC21c2ccc(O)cc2Oc2cc(O)ccc21)C(N)=O [TAT],≤ 30,–
Ac-RWVKVpGOWIKQ-NH2 [WKWK],–,found to enter intact HeLa cells

# From paper PMC6605100 (Peptide science (Hoboken, N.J.), 2018)
